Laboratory results as given in patent US20110105435A1, “THERAPY OPTION FOR RECOLORATION OF HAIR VIA BISPHOSPHONATES BY PHYSIOLOGICAL REPIGMENTATION WITH AGE-RELATED AND/OR PREMATURE "GRAYED" PATIENTS” (priority 2007, published 2011).

System: scalp hair
Assay: Case observation: scalp hair recoloration in a myeloma patient on zoledronate monotherapy
Format: in vivo, human
Conditions: Zometa 4 mg i.v. once monthly
Description: […] Multiple myeloma is a non-Hodgkin lymphoma and represents one of the most frequent malignant bone diseases.
Multiple myeloma in Stage I according to Durie and Salmon without osteolytic activity was diagnosed in the patient in November 2006. Since Stage I myeloma without clinically relevant symptoms are generally not aggressively treated with cytotostatic substances, the patient was included in an experimental monotherapy scheme applying Zometa® (active ingriedient: zoledronate), 4 mg i.v. in calcium-free infusion solution on a once monthly basis.
Zoledronate treatment is pursued for 6 months with a total of 6 therapy cycles until progression of myeloma (proliferation of plasma cell population in the bone marrow) made a more aggressive therapy approach necessary.
A suprising side-effect was observed:
The patient reported that they were black-haired during their teens and twens.
Since zoledronate was applied in monotherapy and no other relevant measures were deployed, the surprising change in hair coloration in the respective patient was caused by the bisphosphonate therapy of the underlying myeloma disease.

## O=P(O)(O)C(O)(Cn1ccnc1)P(=O)(O)O [zoledronate]
Stage I multiple myeloma patient, completely white-haired at therapy induction, 6 cycles, monotherapy
  change in hair coloration (repigmentation of white scalp hair): increasingly developed black scalp hair
Myeloma patient
  duration of treatment until white appearance switched to natural-looking dark-greyish shape: 3-4 months
